Consider 4 compounds from patent publication US12358941B2, “Lipidic analogs of anti-cancer stem cell agent” (VIRGINIA COMMONWEALTH UNIVERSITY, priority 2019, dated 2025).

Several values for one entry are separate records, joined by “and”; a condition that tells them apart may be missing. Equal values may be shown once. Entries after “also recorded” stand apart in the source; their conditions may differ. Read-outs that look alike come from different tables or passages of the source. A value given as a limit tells only on which side of the number the result lay.

Data set [1] has as its system activated partial thromboplastin time (APTT), human plasma. The data set can be described thus: APTT clotting assay in human plasma. It is filed as biochemical. The settings on record: for Concentration required to double APTT: citrated human plasma; for Safety Index: APTT doubling concentration vs HT-29 CSC IC50. The protocol: Glycosaminoglycans, especially heparin/HS, are known for their ability to inhibit the coagulation system. Because G2.2 and its lipid analogs are mimetics of GAGs, it is important to study their effects on the coagulation system. We measured the concentration of lipid-modified G2.2 analogs required to double the activated partial thromboplastin time (APTT; Table 4). The experiments were performed as described in earlier work [Henry, B. L., et al. Blood Coag Fibrinol 2009, 20, 27-34]. Briefly, a standard one-stage recalcification assay in a BBL Fibrosystem fibrometer (Becton-Dickinson, Sparles, MD) was used to measure clotting times in human plasma. A 10 μL aqueous solution of the lipidic analog at a desired concentration was mixed with 90 μL of citrated human plasma and 100 μL of prewarmed APTT reagent. After incubation for 4 min at 37° C., clotting was initiated by adding 100 μL of prewarmed 25 mM CaCl2), and the time to clot was noted. The concentration of the analog required to double the clotting time was calculated from the clotting time versus concentration profile. In general, cholesterol modification of G2.2 increased its anticoagulation potency.

The next data set relates to HT-29 cells (monolayer). The experiment in a line: Monolayer MTT growth assay, HT-29. The data set is classed as cell-based. The settings on record: HT-29 monolayer growth. The protocol: (§1) The inhibitory potential of lipid-modified compounds of Formula I against CSCs was tested using a primary spheroids inhibition assay in various cancer cell lines including HT-29, RKO, HCT-116, LS1034, HC-15, WiDr, SW480, COLO205, NCI-H508, SW1116, LS174T, KM12 etc. Cells were grown both under monolayer and spheroid conditions as described in earlier work [Patel, N. J., et al. ACS Chem. Biol. 2014, 9, 1826-1833]. For primary sphere assay, cells were plated in non-treated, low adhesion, 96 wells plate at the concentration of 100 cells/100 μL/well in stem cell media (SCM) that consisted of DMEM:F12:AA, supplemented with 1×B27, 20 ng/mL epidermal growth factor, and 10 ng/mL fibroblast growth factor. After 4 h of incubation, vehicle (control) or G2.2 and its lipid analogs at the desired concentrations were added to each well (at least in triplicates for each sample). On day five, numbers of spheres ranging from 50 to 150 micrometers in diameter were counted using phase contrast microscope and percent inhibition was calculated compared to control. For monolayer assay, approximately 2.5×10^3 cells/100 μL/well were plated in 96-well tissue culture treated plate. After overnight incubation at 37° C. vehicle (control) or G2.2 was added at the desired concentration and the cells were further incubated for 60-72 h. At the end of the incubation, 10 μL of 5 mg mL^−1 MTT solution ((3-(4,5-dimethylthiazol-2-yl)-2,5-diphenyltetrazolium bromide, Sigma) made in phosphate buffered saline (PBS) (Gibco) was added to each well and incubated for minimum of 2 to 3 h until crystals formation was observed. Following this, 150 μL of 4 mM HCl (Sigma) in isopropanol solution was added dropwise to each well and the mixture was triturated until the crystals dissolve completely. Finally, the plate was placed on the spectrophotometer reader and read at 590 nm and growth inhibition was calculated as percent of control.

A further data set has as its system HT-29 spheroids (CSCs). The data set can be described thus: Primary spheroids inhibition assay, HT-29. It is filed as cell-based. The protocol:
as §1

A short description of data set [2]: Pharmacokinetics in rats, plasma concentration by fluorimetry. The data set is classed as in vivo, Sprague-Dawley rats. Here is the method:
The animal protocol was approved by the Institutional Animal Care and Use Committee at VCU. Adult male Sprague-Dawley rats weighing 250-275 g were acclimatized for over 3 days with free access to standard rat diet and tap water. Animals were then placed on overnight fasting (i.e., without diet, but with free access to water) on a day before the PK studies. Each animal was anesthetized with an IP injection of urethane and an aliquot (0.1 mL) of blood was withdrawn as a prior-to-dosing or time 0 sample from the jugular vein with a use of 0.11 M sodium citrate (0.01 mL) as anti-coagulant. Rats (n=4 or 5) received G2.2 or IIb via IV injection or PO administration, while one animal received G2.2 via IP bolus injection. G2.2 and IIb were dissolved in sterile saline (0.1 mL IV and IP; 0.2 mLs PO). A series of blood aliquots (0.1 mL) were sampled from the jugular vein at different time points over 0 to 8 h. The blood samples were immediately centrifuged at 11,750 g for 3 min to yield the plasma samples, which were then stored at −70° C. At the conclusion of PK studies, all rats were euthanized by exsanguination under the surgical anesthesia.
The concentrations of G2.2 and lipid analogs in plasma were determined by the quantitative fluorimetry assay in which plasma samples were first diluted 2-fold (v/v) with 0.05 M PBS (pH 7.4), then an equal volume of methanol added and the mixture centrifuged at 11,750 g for 5 min. The supernatants were transferred to black 96 well-plates and the fluorescence at 528 nm (G2.2) or 460 nm (lipid analog) (λEX=340 nm) read using a microplate reader. Reference profiles, prepared for concentrations in the range of 0.5 and 50 μg/mL (R^2=0.98-0.99), were used to calculate plasma concentration at every time point.
The PK profile was analyzed using conventional analysis. The parameters deduced included peak plasma concentration (Cmax), the time required to reach Cmax (Tmax), the plasma concentration-time curve (AUC0-∞), the terminal half-life (t1/2), the apparent clearance (CL/F) and the apparent pseudo-steady state volume of distribution (Vpss/F). The absolute bioavailability (F) was deduced for G2.2, while relative bioavailability was deduced for lipid analogs.

A further data set concerns RKO colon spheroids. The experiment in a line: Primary spheroids inhibition assay, RKO. It is filed as cell-based. Particulars: FIG. 6. Here is the method: The inhibitory potential of lipid-modified compounds of Formula I against CSCs was tested using a primary spheroids inhibition assay in various cancer cell lines including HT-29, RKO, HCT-116, LS1034, HC-15, WiDr, SW480, COLO205, NCI-H508, SW1116, LS174T, KM12 etc. Cells were grown both under monolayer and spheroid conditions as described in earlier work [Patel, N. J., et al. ACS Chem. Biol. 2014, 9, 1826-1833]. […] On day five, numbers of spheres ranging from 50 to 150 micrometers in diameter were counted using phase contrast microscope and percent inhibition was calculated compared to control. […] At the end of the incubation, 10 μL of 5 mg mL^−1 MTT solution ((3-(4,5-dimethylthiazol-2-yl)-2,5-diphenyltetrazolium bromide, Sigma) made in phosphate buffered saline (PBS) (Gibco) was added to each well and incubated for minimum of 2 to 3 h until crystals formation was observed. Following this, 150 μL of 4 mM HCl (Sigma) in isopropanol solution was added dropwise to each well and the mixture was triturated until the crystals dissolve completely. Finally, the plate was placed on the spectrophotometer reader and read at 590 nm and growth inhibition was calculated as percent of control.

The subject of data set [3] is normal colon tissue spheroids. The experiment in a line: Patient-derived spheroid growth, normal colon tissue. It is filed as cell-based, human. The settings on record: 5 μM.
The subject of data set [4] is CSC-induced HT-29 xenografts. The data set can be described thus: CSC-induced HT-29 xenograft model. It is filed as in vivo.
Method: Briefly, the protocols were approved by the Animal Component of Research Protocol Committee at McGuire VA Medical Center, Richmond, VA Xenografts were generated by injecting 10^5 CD133 hi/CXCR4hi (Dual hi) fluorescence-activated cell sorter (FACS) isolated HT29 cells suspended in 50% reduced growth factor Matrigel (BD Bioscience; in 50 μL sterile PBS) into the right flank of 6-week-old, female NCr nude mice (Taconic Farms) subcutaneously.
Once the tumors reached 50 mm^3, mice were randomized to either of the three groups (vehicle, 200 mg/kg G2.2, or 100 mg/kg IIb) and dosed i.p three times a week for three weeks. Tumor measurements on each animal were made 3 times a week with Vernier calipers, and tumor volume was calculated using the formula: V=W^2 (L)/2, where V is the volume in mm^3, and W and L are the width and length in mm. […] The remainder of animals were monitored till they reached predefined humane end-points. Animals were sacrificed per Institutional Animal Care and Use Committee—approved methods of euthanasia.
Data set [5] has as its system xenografts-derived cells (HT-29), 3° spheroids. The experiment in a line: Ex vivo tertiary spheroid formation of xenograft-derived cells. Particulars: cells from treated xenografts, a week after last dose. The data set is classed as cell-based. From the text:
We also utilized our earlier observation that CSCs/progenitors are enhanced several-fold in spheroid culture and assessed the xenografts-derived cells for retention of tertiary spheroid growth inhibition profiles to distinguish between non self-renewing progenitors and self-renewing CSCs ex vivo.

For data set [6], the system named is cancerous tissue-derived primary human spheroids. The data set can be described thus: Patient-derived spheroid growth, cancerous colon tissue. The data set is classed as cell-based. The settings on record: 5 μM.
For data set [7] the following is noted: background statement; cited from earlier work.
Setting [8] is: HT-29 CSCs, Table 4, read-out: IC50 (HT-29 CSCs).
Where [9] appears, read: HT-29 spheroid growth, read-out: Spheroid IC50.

As to Enoxaparin [reference compound], the “Concentration required to double APTT” value in [1] stood at 2.5 µM.
Take `CC(C)CCCC(C)C1CCC2C3CC=C4CC(OCCCCCCCCOc5cc(-c6oc7cc(OS(=O)(=O)[O-])cc(OCCCOc8cc(OS(=O)(=O)[O-])cc9oc(-c%10ccc(OS(=O)(=O)[O-])c(OS(=O)(=O)[O-])c%10)c(OS(=O)(=O)[O-])c(=O)c89)c7c(=O)c6OS(=O)(=O)[O-])ccc5OS(=O)(=O)[O-])CCC4(C)C3CCC12C.[Na+].[Na+].[Na+].[Na+].[Na+].[Na+].[Na+]` (centres unmarked) [IIc]: the “Monolayer IC50” value with HT-29 cells (monolayer) is reported as 1079 ± 15%. Besides, the half-inhibitory concentration (IC50) with HT-29 spheroids (CSCs) (setting [8]) is 0.8 ± 0.2 µM. Also, the IC50 in the data set with HT-29 spheroids (CSCs) (setting [9]) was 0.8 ± 0.2 µM. In data set [1], the “Safety Index” value is 63-fold and the “Concentration required to double APTT” value is 50 µM. The “absorption compared with G2.2” value in [2] (PO, rats) is “far greater than that for G2.2”.
Take `CC(C)CCCC(C)C1CCC2C3CC=C4CC(OCCCCCOc5cc(-c6oc7cc(OS(=O)(=O)[O-])cc(OCCCOc8cc(OS(=O)(=O)[O-])cc9oc(-c%10ccc(OS(=O)(=O)[O-])c(OS(=O)(=O)[O-])c%10)c(OS(=O)(=O)[O-])c(=O)c89)c7c(=O)c6OS(=O)(=O)[O-])ccc5OS(=O)(=O)[O-])CCC4(C)C3CCC12C.[Na+].[Na+].[Na+].[Na+].[Na+].[Na+].[Na+]` (centres unmarked) [IIb]: the “inhibition of RKO colon spheroids” value with RKO colon spheroids is reported as “dose-dependent inhibition”. Moreover, the “effect on spheroid growth formation, normal tissue” value in data set [3] is “without any effect”. Besides, the IC50 was above 500 µM in the data set with HT-29 cells (monolayer), 8.2 ± 1.5 µM in the data set on HT-29 spheroids (CSCs) (setting [8]) and 8.2 ± 1.5 µM with HT-29 spheroids (CSCs) (setting [9]). In addition, the “decrease in tumor volume compared with vehicle controls” value in data set [4] (100 mg/kg i.p., 3 times a week x 3 weeks, end of treatment) is above 80%. Also, in data set [4] (100 mg/kg i.p., nude mice), the “gross toxicity (animal body weight)” value was “did not show any gross toxic effects; also recorded: no gross toxicity”. Moreover, the “CSC markers (DCLK1, LGR5) and self-renewal factor (BMI-1), western blot of xenografts” value in data set [4] (100 mg/kg i.p., vs vehicle) is “robust reduction; also recorded: reduction in CSC markers”. Also, the “tumor volume compared to vehicle treated mice” value in data set [4] (100 mg/kg, i.p.) was “significant reduction in tumor volume”. The “effect on tumor volume compared to G2.2 (200 mg/kg)” value in data set [4] (IIb 100 mg/kg i.p.) is on record as above 2 fold. In addition, the “CSC markers, flow cytometry analysis of mice xenografts” value in data set [4] (IIb treated mice) is recorded as “reduction in CSC markers”. In addition, the “in vivo potency relative to G2.2” value in [4] (overall in vivo studies) is reported as around 4 fold. Further, the “decrease in 3° spheroid formation vs vehicle controls” value in data set [5] is given as 2.6 fold. In addition, the “inhibition of spheroid growth formation, cancerous tissue” value in data set [6] is “significantly inhibited”. Moreover, the “Safety Index” value in [1] is 6-fold. In data set [1], the “Concentration required to double APTT” value stood at 48 µM. The “peaks in the plasma concentration vs. time profile” value in data set [2] (PO nominal 50 mg/kg, rats, 0-8 h) was “At least 2”.
Consider `O=c1c(OS(=O)(=O)O)c(-c2ccc(OS(=O)(=O)O)c(OS(=O)(=O)O)c2)oc2cc(OS(=O)(=O)O)cc(OCCCOc3cc(OS(=O)(=O)O)cc4oc(-c5ccc(OS(=O)(=O)O)c(OS(=O)(=O)O)c5)c(OS(=O)(=O)O)c(=O)c34)c12` [Compound G2.2], for which the “inhibition of RKO colon spheroids” value with RKO colon spheroids is given as “dose-dependent inhibition”. This compound returned a concentration for half-maximal inhibition (IC50) in the data set on HT-29 cells (monolayer) above 500 µM. In data set [7], the half-life was 4 h and the oral bioavailability was below 1%. Also, the IC50 in the data set on HT-29 spheroids (CSCs) (setting [8]) was found to be 29 ± 1 µM. Also, the IC50 in the data set with HT-29 spheroids (CSCs) (setting [9]) is 29 ± 1 µM. Also, in data set [1], the “Safety Index” value is 22-fold and the “Concentration required to double APTT” value amounted to 640 µM. Further, the distribution phase result in data set [2] (G2.2 IV bolus 50 mg/kg, rats) is “about 1.5 hours”. In addition, in data set [2] (IP 200 mg/kg, rat), the “AUC0-∞ (area under the plasma concentration v/s time curve)” value turned out to be 6398 µg·h/mL, the Cmax was 925 µM, the “Cmax (maximum plasma concentration)” value was around 1350 µg/mL and the “t1/2 (terminal half-life)” value was determined as 3 h. For the same compound, the “F (absolute bioavailability)” value in [2] (IP 200 mg/kg, rat, 200 mg/kg) came out at 30%. Further, the terminal half-life in data set [2] (IV bolus 50 mg/kg, rats) came to 4.4 h. Moreover, in [2] (PO 200 mg/kg, rats), the “AUC0-∞ (area under the plasma concentration v/s time curve)” value came out at 584 µg·h/mL, the peak concentration (Cmax) came to 55.6 µM and the “t1/2 (terminal half-life)” value came to 4.6 h. In data set [2] (PO 200 mg/kg, rats, 200 mg/kg), the “Cmax (maximum plasma concentration)” value was 81.2 µg/mL and 81 µg/mL; the “F (absolute bioavailability)” value is recorded as 3%.
